14 compounds from the NIST ThermoML archive (doi:10.1016/j.fluid.2014.11.020) can be followed below.

A short description of the data set: activity coefficient (dimensionless); of the first substance listed, at infinite dilution; xn = mol fraction of the nth substance listed. The following applies: Liquid, Chromatography, x1 = 0.

Numbers after ± are expanded uncertainties.

For `C1COCCO1` [1,4-dioxane] + CCCCCCCCn1cc[n+](COCCC)c1C.N#C[N-]C#N, the activity coefficient by setting is: (323.15 K) 0.77 ± 0.05; (333.15 K) 0.78 ± 0.05; (343.15 K) 0.78 ± 0.05.
As to `CCCCCCCCCC` [decane] + CCCCCCCCn1cc[n+](COCCCOC[n+]2ccn(CCCCCCCC)c2C)c1C.O=S(=O)([N-]S(=O)(=O)C(F)(F)F)C(F)(F)F.O=S(=O)([N-]S(=O)(=O)C(F)(F)F)C(F)(F)F, the activity coefficient turned out to be 9.63 ± 0.66 (323.15 K), 8.73 ± 0.6 (333.15 K) and 8.35 ± 0.57 (343.15 K).
On to `C1CCCCC1` [cyclohexane] + CN(C)c1cc[n+](COCCCOC[n+]2ccc(N(C)C)cc2)cc1.O=S(=O)([N-]S(=O)(=O)C(F)(F)F)C(F)(F)F.O=S(=O)([N-]S(=O)(=O)C(F)(F)F)C(F)(F)F, for which the activity coefficient is, setting by setting: (323.15 K) 10.7 ± 0.73; (333.15 K) 9.32 ± 0.64; (343.15 K) 8.67 ± 0.59.
As to `CCC(=O)CC` [pentan-3-one] + CCCOC[n+]1ccn(Cc2ccccc2)c1.F[B-](F)(F)F, the activity coefficient is, setting by setting: (323.15 K) 1.73 ± 0.12; (333.15 K) 1.74 ± 0.12; (343.15 K) 1.75 ± 0.12.
For `CCC(C)=O` [butanone] + CCCOC[n+]1ccc(N(C)C)cc1.O=S(=O)([N-]S(=O)(=O)C(F)(F)F)C(F)(F)F, the activity coefficient is, setting by setting: (323.15 K) 0.51 ± 0.04; (333.15 K) 0.49 ± 0.04; (343.15 K) 0.45 ± 0.04.
For `ClCCl` [dichloromethane] + CCCOC[n+]1ccn(C)c1.O=S(=O)([N-]S(=O)(=O)C(F)(F)F)C(F)(F)F, the activity coefficient reads like this: (323.15 K) 0.71 ± 0.05; (333.15 K) 0.79 ± 0.05; (343.15 K) 0.75 ± 0.05.
The like results for `Cc1cccc(C)c1` [1,3-dimethylbenzene] + N#C[N-]C#N.N#C[N-]C#N.c1ccc(Cn2cc[n+](COCCCOC[n+]3ccn(Cc4ccccc4)c3)c2)cc1 were, in that order, 8.85 ± 0.6, 8.51 ± 0.58 and 8.32 ± 0.57.
In the case of `C=CCCCC` [hex-1-ene] + CCCOC[n+]1ccn(Cc2ccccc2)c1.N#C[N-]C#N, the activity coefficient is, setting by setting: (323.15 K) 15.9 ± 1.1; (333.15 K) 14.8 ± 1.
Regarding `c1ccsc1` [thiophene] + CCCOC[n+]1ccn(C)c1.O=S(=O)([N-]S(=O)(=O)C(F)(F)F)C(F)(F)F, the activity coefficient was 1.06 ± 0.07 (323.15 K), 1.05 ± 0.07 (333.15 K) and 1.04 ± 0.07 (343.15 K).
For `CC(C)O` [propan-2-ol] + CCCOC[n+]1ccc(N(C)C)cc1.O=S(=O)([N-]S(=O)(=O)C(F)(F)F)C(F)(F)F, in that order: 1.7 ± 0.11, 1.62 ± 0.11 and 1.45 ± 0.1.
For `C#CCCCCC` [1-heptyne] + CN(C)c1cc[n+](COCCCOC[n+]2ccc(N(C)C)cc2)cc1.O=S(=O)([N-]S(=O)(=O)C(F)(F)F)C(F)(F)F.O=S(=O)([N-]S(=O)(=O)C(F)(F)F)C(F)(F)F, the activity coefficient was 4.2 ± 0.29 (323.15 K), 4.09 ± 0.28 (333.15 K) and 4.01 ± 0.27 (343.15 K).
For `CO` [methanol] + CCCCCCCCn1cc[n+](COCCCOC[n+]2ccn(CCCCCCCC)c2C)c1C.O=S(=O)([N-]S(=O)(=O)C(F)(F)F)C(F)(F)F.O=S(=O)([N-]S(=O)(=O)C(F)(F)F)C(F)(F)F, in that order: 0.57 ± 0.04, 0.51 ± 0.04 and 0.49 ± 0.04.
The like results for `CC(C)CO` [2-methyl-1-propanol] + CCCOC[n+]1ccn(C)c1.F[B-](F)(F)F were, in that order, 4.35 ± 0.3, 3.95 ± 0.27 and 3.56 ± 0.24.
Take `CCCC(C)=O` [pentan-2-one] + CCCOC[n+]1ccn(C)c1.O=S(=O)([N-]S(=O)(=O)C(F)(F)F)C(F)(F)F: the activity coefficient reads like this: (323.15 K) 0.72 ± 0.05; (333.15 K) 0.72 ± 0.05; (343.15 K) 0.73 ± 0.05.
